How the values were obtained:
human Kv1.3 = molecular target: T1, human Kv1.3 (Homo sapiens, UniProt P22001); assay: Kv1.3 Autopatch Electrophysiology; type: cell-based; conditions: 1 μM compound, CHO cells stably transfected with human Kv1.3, AutoPatch whole cell mode, room temperature; for inhibition at 1 µM: read-out: Kv 1.3% Inhibition at 1 μM
T1 construct: expressed in transfected cells; host or cells: stably transfected cells
Method: Kv1.3 Autopatch Electrophysiology Method
(§1) Cells stably transfected with cDNA for human Kv1.3 (in pcDNA3.1) were grown in Ex-cell 302 serum-free medium for CHO cells, supplemented with 10 μl/ml [100×] glutamine, 500 μg/ml G418 (gentimicin), and 1% HT supplement (50×, hypoxanthine and thymidine). Compounds were tested on these cells using the AutoPatch technology in whole cell mode.
The external bathing solution contained (in mM): 150 NaCl, 10 KCl, 1 MgCl2, 3 CaCl2, 10 HEPES, pH 7.4 with NaOH. Patch pipettes were filled with an electrode solution of composition (in mM): 100 K-Gluconate, 20 KCl, 1 MgCl2, 1 CaCl2, 10 HEPES, 11 EGTA, 5 ATP—Na2, 2 Glutathione pH 7.2 with KOH.
(§2) Compounds were dissolved in DMSO (100%) and made up in the external bather at a concentration of 1 μM. All experiments were conducted at room temperature (22-24° C.).
(§3) A cell suspension (10 ml), with a density of 100,000 cells/ml, was aliquoted into a 15 ml centrifuge tube and transferred to an incubator (37° C., 5% CO2) for approximately one hour before use. Following 60 min incubation, a tube was taken and centrifuged at 1000 rpm for 4 mins at room temperature. 9.5 ml supernatant was thence discarded, leaving a cell pellet at the bottom of the tube. The pellet was then resuspended using 100 μl of cold (4° C.), filtered (0.22 μm), 0.2% BSA/bather solution (0.02 g BSA/10 ml bather). The bottom of the tube was manually agitated gently until the solution became cloudy with cells. The 100 μl cell resuspension solution was then stored on the bench at 4° C. (using a Peltier-based temperature control device) until used.
(§4) A length of capillary glass (1B150F-4, WPI) was dipped into the cell suspension solution, such that ˜3 cm column of fluid was taken up by capillary action. A Ag/AgCl wire was dropped into the non-dipped end of the capillary also. The outside of the solution-filled end of the capillary was then dried and the capillary was loaded into the AutoPatch™. Borosilicate glass patch pipettes (from 1.5 mm OD, thin-walled filamented, GC150-TF capillary glass, Harvard) were pulled using a DMZ pipette puller (Zeitz Instruments), and were back-filled using the internal pipette solution, being careful that no bubbles remain at the tip or in the body of the pipette. Patch pipettes typically had resistances of 2.3-3.5 MΩ. Once filled, the pipette tip and a proportion of the shaft (˜15 mm) were dipped into Sigmacote (Sigma). The recording pipette was then loaded into the AutoPatch™. Automated patch-clamping was initiated by the operator, but thereafter AutoPatch.exe continued the experiment providing that pre-set conditions and criteria were satisfied.
(§5) Whole cell patch-clamp recordings were made using the AutoPatch™ rig, which incorporated an EPC9 or EPC10 amplifier (HEKA, Germany) under control of Pulse software (v8.54 or v8.76, HEKA, Germany), a motion controller with 2 translators (Newport, UK), valve controller (VF1) and a c-level suction device all at room temperature (22-24° C.). This equipment was completely under the control of AutoPatch.exe and operator intervention was only made when there was a requirement to refill the drug reservoirs or to prevent the loss of a cell due to a technical error. Cells with an Rseries greater than 18 MΩ were discounted from the experiment.
(§6) Qualification stages prior to perfusion and drug application ensured that the observed current met the criteria for the experiment. Only those cells with an IK>400 pA were used for experiments. Cells were continuously perfused with external solution at a flow rate of 1.8-2 ml/minute. […] Online analysis of the hKv1.3 current during the application of compounds was performed by the AutoPatch™ software. Voltage-step protocols and analysis of data was performed as described for conventional electrophysiology.
(§7) Electrophysiology voltage-step protocols and analysis of data was performed as follows. Data was sampled at 5 kHz, and filtered with a −3 dB bandwidth of 2.5 kHz. Cells were held at a voltage of −80 mV. […]

human Kv1.5 = molecular target: T2, human Kv1.5 (Homo sapiens, UniProt P22460); assay: Kv1.5 Autopatch Electrophysiology; type: cell-based; conditions: 1 μM compound, CHO cells stably transfected with human Kv1.5, AutoPatch whole cell mode, room temperature; for inhibition at 1 µM: read-out: Kv 1.5% Inhibition at 1 μM
T2 construct: expressed in transfected cells; host or cells: stably transfected cells
T2 sequence (P22460 whole entry): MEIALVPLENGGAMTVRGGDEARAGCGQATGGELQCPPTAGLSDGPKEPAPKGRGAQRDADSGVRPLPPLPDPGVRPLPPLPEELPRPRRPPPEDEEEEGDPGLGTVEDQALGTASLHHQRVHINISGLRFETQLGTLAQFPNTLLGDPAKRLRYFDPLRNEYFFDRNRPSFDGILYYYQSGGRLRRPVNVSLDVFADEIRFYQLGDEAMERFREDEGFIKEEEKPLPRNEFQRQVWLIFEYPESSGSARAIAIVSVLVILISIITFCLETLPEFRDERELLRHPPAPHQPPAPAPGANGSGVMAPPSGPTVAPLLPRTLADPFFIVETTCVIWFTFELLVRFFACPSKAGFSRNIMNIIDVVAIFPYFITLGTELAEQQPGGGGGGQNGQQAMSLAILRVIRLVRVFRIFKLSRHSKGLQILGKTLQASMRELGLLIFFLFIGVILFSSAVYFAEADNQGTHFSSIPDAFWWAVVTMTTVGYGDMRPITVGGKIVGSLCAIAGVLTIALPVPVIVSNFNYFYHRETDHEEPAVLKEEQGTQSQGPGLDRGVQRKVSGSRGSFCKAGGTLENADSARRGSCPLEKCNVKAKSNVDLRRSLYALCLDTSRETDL
Method: Kv1.5 Autopatch Electrophysiology Method
as §1, with “Kv1.5” for “Kv1.3”, “pEF6::VA-His-TOPO)” for “pcDNA3.1)”, “5” for “500”, “blasticidin” for “G418 (gentimicin),”
The external bathing solution contained (in mM): 150 NaCl, 10 KCl, 1 MgCl2, 3 CaCl2, 10 HEPES, pH 7.4 with NaOH. Patch pipettes were filled with an electrode solution of composition (in mM): 160 KCl, 0.5 MgCl2, 10 HEPES, 1 EGTA, pH 7.4 with KOH.
as §2, §3, §4, §5
as §6, with “IK>500” for “IK>400”, “hKv1.5” for “hKv1.3”
as §7

T1 sequence (P22001 whole entry): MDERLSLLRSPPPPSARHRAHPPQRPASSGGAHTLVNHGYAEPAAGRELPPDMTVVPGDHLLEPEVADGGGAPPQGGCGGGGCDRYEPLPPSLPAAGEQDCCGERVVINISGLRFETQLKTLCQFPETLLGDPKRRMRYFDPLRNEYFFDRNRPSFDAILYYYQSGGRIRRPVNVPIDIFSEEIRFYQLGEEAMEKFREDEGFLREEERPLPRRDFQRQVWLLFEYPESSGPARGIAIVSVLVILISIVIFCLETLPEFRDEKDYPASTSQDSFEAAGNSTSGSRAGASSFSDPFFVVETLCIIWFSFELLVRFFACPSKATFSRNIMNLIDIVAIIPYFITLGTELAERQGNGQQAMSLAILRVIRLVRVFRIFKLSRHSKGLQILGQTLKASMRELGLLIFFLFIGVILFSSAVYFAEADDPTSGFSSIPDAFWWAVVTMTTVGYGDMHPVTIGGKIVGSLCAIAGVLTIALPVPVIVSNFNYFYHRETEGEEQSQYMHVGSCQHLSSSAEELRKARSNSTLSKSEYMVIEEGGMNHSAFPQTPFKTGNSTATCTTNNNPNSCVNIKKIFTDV

inhibition at 1 µM (human Kv1.3)	inhibition at 1 µM (human Kv1.5)	Kv 1.3% Inhibition at 1 μM (human Kv1.3)	Kv 1.5% Inhibition at 1 μM (human Kv1.5)	SMILES
46.1%	59.6%			c1ccc(-c2csc3ccnc(NCc4ccccn4)c23)cc1 [Example 12, (3-Phenyl-thieno[3,2-c]pyridin-4-yl)-pyridin-2ylmethyl-amine]
12.6%	33.3%			Cc1ccc(-c2csc3c(-c4ccccc4O)cnc(NCc4ccccc4)c23)cc1 [Example 35, 2-(4-Benzylamino-3-p-tolyl-thieno[3,2-c]pyridin-7-yl)-phenol]
61.5%	77.4%			c1ccc(CNc2nccc3scc(-c4ccccc4)c23)cc1 [Example 21, Benzyl-(3-phenyl-thieno[3,2-c]pyridin-4-yl)-amine]
72.7%	91.9%			COc1cccc(-c2csc3ccnc(NCc4ccco4)c23)c1 [Example 28, Furan-2-ylmethyl-[3-(3-methoxy-phenyl)-thieno[3,2-c]pyridin-4-yl]-amine]
91.9%	87.2%			Fc1ccc(-c2csc3ccnc(NCc4cccs4)c23)cc1 [Example 15, [3-(4-Fluoro-phenyl)-thieno[3,2-c]pyridin-4-yl]thiophen-2-ylmethyl-amine]
24.1%	14.5%			Cc1ccc(-c2csc3c(-c4ccc(N(C)C)cc4)cnc(NCc4ccccc4)c23)cc1 [Example 42, Benzyl-[7-(4-dimethylamino-phenyl)-3-p-tolyl-thieno[3,2-c]pyridin-4-yl]-amine]
49.9%	36.3%			Cc1ccc(-c2csc3c(-c4ccncc4)cnc(NCc4ccccc4)c23)cc1 [Example 40, Benzyl-(7-pyridin-4-yl-3-p-tolyl-thieno[3,2-c]pyridin-4-yl)-amine]
34%	24.7%			Cc1ccc(-c2csc3c(-c4ccc(F)cc4)cnc(NCc4ccccc4)c23)cc1 [Example 45, Benzyl-[7-(4-fluoro-phenyl)-3-p-tolyl-thieno[3,2-c]pyridin-4-yl]-amine]
50.1%	90%			Cc1ccc(-c2csc3c(-c4cccnc4)cnc(NCc4ccccc4)c23)cc1 [Example 39, Benzyl-(7-pyridin-3-yl-3-p-tolyl-thieno[3,2-c]pyridin-4-yl)-amine]
48.4%	80.4%			c1ccc(-c2csc3ccnc(NCc4ccco4)c23)cc1 [Example 26, Furan-2-ylmethyl-(3-phenyl-thieno[3,2-c]pyridin-4-yl)amine]
15.7%	39.9%			Cc1ccc(-c2csc3c(-c4ccc(O)cc4)cnc(NCc4ccccc4)c23)cc1 [Example 37, 4-(4-Benzylamino-3-p-tolyl-thieno[3,2-c]pyridin-7-yl)-phenol]
73.5%	75.6%			COc1cccc(-c2csc3ccnc(NCc4ccc5c(c4)OCCO5)c23)c1 [Example 19, (2,3-Dihydro-benzo[1,4]dioxin-6-ylmethyl)-[3-(3-methoxy-phenyl)-thieno[3,2-c]pyridin-4-yl)-amine]
		82.8%	65.8%	c1ccc(CCCCNc2nccc3scc(-c4ccccc4)c23)cc1 [Example 30, (4-Phenyl-butyl)-(3-phenyl-thieno[3,2-c]pyridin-4-yl)-amine]
58%	79.6%			COc1cccc(-c2csc3ccnc(NCc4ccccc4)c23)c1 [Example 23, Benzyl-[3-(3-methoxy-phenyl)-thieno[3,2-c]pyridin-4-yl]-amine]
68.6%	90.2%			Fc1ccc(-c2csc3ccnc(NCc4ccccc4)c23)cc1 [Example 22, Benzyl-[3-(4-fluoro-phenyl)-thieno[3,2-c]pyridin-4-yl]-amine]
45.9%	70.4%			Fc1ccc(-c2csc3ccnc(NCc4ccco4)c23)cc1 [Example 27, [3-(4-Fluoro-phenyl)-thieno[3,2-c]pyridin-4-yl]-furan-2-ylmethyl-amine]
8.1%	25.6%			Cc1ccc(-c2csc3c(-c4ccccc4)cnc(NCc4ccccc4)c23)cc1 [Example 34, Benzyl-(7-phenyl-3-p-tolyl-thieno[3,2-c]pyridine-4-yl)-amine]
66.2%	86.1%			Cc1ccc(-c2csc3ccnc(NCc4ccco4)c23)cc1 [Example 29, Furan-2-ylmethyl-(3-p-tolyl-thieno[3,2-c]pyridin-4-yl)-amine]
13.6%	26.3%			Cc1ccc(-c2csc3c(-c4ccccc4F)cnc(NCc4ccccc4)c23)cc1 [Example 43, Benzyl-[7-(2-fluoro-phenyl)-3-p-tolyl-thieno[3,2-c]pyridin-4-yl]-amine]
76.9%	85.3%			c1ccc(-c2csc3ccnc(NCc4ccc5c(c4)OCCO5)c23)cc1 [Example 18, (2,3-Dihydro-benzo[1,4]dioxin-6-ylmethyl)-(3-phenyl-thieno[3,2-c]pyridin-4-yl)-amine]
58.1%	70.5%			c1ccc(CNc2nccc3scc(-c4ccc5c(c4)OCO5)c23)cc1 [Example 25, (3-Benzo[1,3]dioxol-5-yl-thieno[3,2-c]pyridin-4-yl)-benzyl-amine]
23.7%	50.8%			Cc1cc2scc(-c3ccccc3)c2c(NCc2ccccc2)n1 [Example 50, Benzyl-(6-methyl-3-phenyl-thieno[3,2-c]pyridin-4-yl)-amine]
91.2%	81.9%			c1ccc(-c2csc3ccnc(NCc4cccs4)c23)cc1 [Example 14, (3-Phenyl-thieno[3,2-c]pyridin-4-yl)-thiophen-2-ylmethyl-amine]
59.6%	86.1%			Fc1ccc(-c2csc3ccnc(NCc4ccc5c(c4)OCCO5)c23)cc1 [Example 17, (2,3-Dihydro-benzo[1,4]dioxin-6-ylmethyl)-[3-(4-fluoro-phenyl)-thieno[3,2-c]pyridin-4-yl]-amine]
29.6%	18.8%			Cc1ccc(-c2csc3c(-c4cccc(F)c4)cnc(NCc4ccccc4)c23)cc1 [Example 44, Benzyl-[7-(3-fluoro-phenyl)-3-p-tolyl-thieno[3,2-c]pyridin-4-yl]-amine]

Reference: patent US9216992B2, “Thieno[3,2-c]pyridine potassium channel inhibitors” (Xention Limited, priority 2005, dated 2015)
